In article PMC7937321 (Genes and Environment, 2021):

Legend:
[1] = system: rodent; conditions: cited from earlier work
[2] = system: L5178Y mouse lymphoma cells; conditions: cited from earlier work
[3] = system: human lymphoblastoid TK6 cells, thymidine kinase gene; experiment: TK gene mutation assay (TK6 assay, OECD TG490)
[4] = system: TK6 cells; experiment: Cytotoxicity in the TK6 assay (CE, RS, RSG, RTG); conditions: for RS: graph sheet, TK6, 24 h
[5] = system: human lymphoblastoid TK6 cells, thymidine kinase gene
[6] = system: TA1538, TA100, TA98, TA97, TA1535; conditions: ref [18]-[40], Table 2, cited from earlier work
[7] = TK6, 24 h treatment, -S9 mix, dose 60.00 μg/mL
[8] = TK6, 24 h treatment, -S9 mix, dose 90.00 μg/mL
[9] = TK6, 24 h treatment, -S9 mix, dose 200.0 μg/mL
[10] = TK6, 24 h treatment, -S9 mix, dose 220.0 μg/mL
[11] = short treatment, +S9 mix, dose 62.5 μg/mL
[12] = short treatment, +S9 mix, dose 250 μg/mL
[13] = short treatment, +S9 mix, dose 500 μg/mL
[14] = short treatment, +S9 mix, dose 1000 μg/mL
[15] = short treatment, +S9 mix, dose 2000 μg/mL
[16] = short treatment, -S9 mix, dose 62.50 μg/mL
[17] = short treatment, -S9 mix, dose 500.0 μg/mL
[18] = short treatment, -S9 mix, dose 1000.0 μg/mL
[19] = short treatment, -S9 mix, dose 2000.0 μg/mL
[20] = short treatment, +S9 mix, Day 0, dose 62.5 μg/mL
[21] = short treatment, +S9 mix, Day 0, dose 250 μg/mL
[22] = short treatment, +S9 mix, Day 0, dose 500 μg/mL
[23] = short treatment, +S9 mix, Day 0, dose 1000 μg/mL
[24] = short treatment, +S9 mix, Day 0, dose 2000 μg/mL
[25] = short treatment, -S9 mix, Day 0, dose 62.50 μg/mL
[26] = short treatment, -S9 mix, Day 0, dose 500.0 μg/mL
[27] = short treatment, -S9 mix, Day 0, dose 1000.0 μg/mL
[28] = short treatment, -S9 mix, Day 0, dose 2000.0 μg/mL

CNc1ccc(N(CCO)CCO)cc1[N+](=O)[O-] [HC blue No. 1, reference compound]
carcinogenicity classification ([1]; ref [84]): carcinogen | mutagenicity in MLA (+S9) ([2]; +S9, ref [68]): positive with weak response | MLA (−S9) ([2]; substance with high purity, −S9, ref [27], [85]): negative

O=[N+]([O-])c1cc(N(CCO)CCO)ccc1NCCO [HC blue no2]
%SG [3, 7]: 47.5% | Mut. freq. N-MF [3, 7]: 1.5 ×10-6 | Mut. freq. S-MF [3, 7]: 1.4 ×10-6 | Mut. freq. T-MF [3, 7]: 2.9 ×10-6 | %SG [3, 8]: 74.7% | Mut. freq. N-MF [3, 8]: 0.528 ×10-6 | Mut. freq. S-MF [3, 8]: 1.6 ×10-6 | Mut. freq. T-MF [3, 8]: 2.1 ×10-6 | %SG [3, 9]: 48.2% | Mut. freq. N-MF [3, 9]: 3.7 ×10-6 | Mut. freq. S-MF [3, 9]: 3.4 ×10-6 | Mut. freq. T-MF [3, 9]: 7.1 ×10-6 | %SG [3, 10]: 52.5% | Mut. freq. N-MF [3, 10]: 5.1 ×10-6 | Mut. freq. S-MF [3, 10]: 5.7 ×10-6 | Mut. freq. T-MF [3, 10]: 10.8 ×10-6 | MF ([3]; graph sheet, TK6, 24 h, -S9 mix, dose 60.00 μg/mL): 2.9 | MF ([3]; graph sheet, TK6, 24 h, -S9 mix, dose 90.00 μg/mL): 2.1 | MF ([3]; graph sheet, TK6, 24 h, -S9 mix, dose 200.0 μg/mL): 7.1 | MF ([3]; graph sheet, TK6, 24 h, -S9 mix, dose 220.0 μg/mL): 10.8 | %SG [3, 11]: 50.7% | Mut. freq. N-MF [3, 11]: 0.7 ×10-6 | Mut. freq. S-MF [3, 11]: 0.7 ×10-6 | Mut. freq. T-MF [3, 11]: 1.5 ×10-6 | %SG [3, 12]: 22.9% | Mut. freq. N-MF [3, 12]: 2.4 ×10-6 | Mut. freq. S-MF [3, 12]: 0.7 ×10-6 | Mut. freq. T-MF [3, 12]: 3.0 ×10-6 | %SG [3, 13]: 42.4% | Mut. freq. N-MF [3, 13]: 1.9 ×10-6 | Mut. freq. S-MF [3, 13]: 1.4 ×10-6 | Mut. freq. T-MF [3, 13]: 3.3 ×10-6 | %SG [3, 14]: 28.4% | Mut. freq. N-MF [3, 14]: 2.8 ×10-6 | Mut. freq. S-MF [3, 14]: 1.1 ×10-6 | Mut. freq. T-MF [3, 14]: 3.9 ×10-6 | %SG [3, 15]: 48.7% | Mut. freq. N-MF [3, 15]: 1.3 ×10-6 | Mut. freq. S-MF [3, 15]: 1.2 ×10-6 | Mut. freq. T-MF [3, 15]: 2.5 ×10-6 | %SG [3, 16]: 23.1% | Mut. freq. N-MF [3, 16]: 1.5 ×10-6 | Mut. freq. S-MF [3, 16]: 0.455 ×10-6 | Mut. freq. T-MF [3, 16]: 2.0 ×10-6 | %SG [3, 17]: 55.5% | Mut. freq. N-MF [3, 17]: 1.8 ×10-6 | Mut. freq. S-MF [3, 17]: 2.3 ×10-6 | Mut. freq. T-MF [3, 17]: 4.1 ×10-6 | %SG [3, 18]: 26.3% | Mut. freq. N-MF [3, 18]: 2.3 ×10-6 | Mut. freq. S-MF [3, 18]: 0.8 ×10-6 | Mut. freq. T-MF [3, 18]: 3.1 ×10-6 | %SG [3, 19]: 51.7% | Mut. freq. N-MF [3, 19]: 1.8 ×10-6 | Mut. freq. S-MF [3, 19]: 1.9 ×10-6 | Mut. freq. T-MF [3, 19]: 3.7 ×10-6 | Adjusted CE0 [4, 7]: 341.6% | CE0 (cell viability on Day 0) [4, 7]: 112.0% | CE3 (cell viability on Day 3) [4, 7]: 116.0% | RS0 [4, 7]: 128.6% | RSG [4, 7]: 0.865 | Adjusted CE0 [4, 8]: 259.2% | CE0 (cell viability on Day 0) [4, 8]: 81.6% | CE3 (cell viability on Day 3) [4, 8]: 125.0% | RS0 [4, 8]: 97.6% | RSG [4, 8]: 0.765 | Adjusted CE0 [4, 9]: 96.6% | CE0 (cell viability on Day 0) [4, 9]: 50.2% | CE3 (cell viability on Day 3) [4, 9]: 112.0% | RS0 [4, 9]: 36.4% | RSG [4, 9]: 0.241 | Adjusted CE0 [4, 10]: 48.2% | CE0 (cell viability on Day 0) [4, 10]: 28.3% | CE3 (cell viability on Day 3) [4, 10]: 101.2% | RS0 [4, 10]: 18.1% | RSG [4, 10]: 0.106 | CE3 ([4]; as fraction, mutation frequency table, TK6, 24 h treatment, -S9 mix, dose 60.00 μg/mL): 1.160 | CE3 ([4]; as fraction, mutation frequency table, TK6, 24 h treatment, -S9 mix, dose 90.00 μg/mL): 1.250 | CE3 ([4]; as fraction, mutation frequency table, TK6, 24 h treatment, -S9 mix, dose 200.0 μg/mL): 1.120 | CE3 ([4]; as fraction, mutation frequency table, TK6, 24 h treatment, -S9 mix, dose 220.0 μg/mL): 1.012 | RS ([4]; -S9 mix, dose 60.00 μg/mL): 128.6 | RS ([4]; -S9 mix, dose 90.00 μg/mL): 97.6 | RS ([4]; -S9 mix, dose 200.0 μg/mL): 36.4 | RS ([4]; -S9 mix, dose 220.0 μg/mL): 18.1 | Adjusted CE0 [4, 20]: 91.4% | CE0 [4, 20]: 81.6% | RS0 [4, 20]: 96.7% | Adjusted CE0 [4, 21]: 89.0% | CE0 [4, 21]: 74.8% | RS0 [4, 21]: 94.2% | Adjusted CE0 [4, 22]: 80.9% | CE0 [4, 22]: 79.3% | RS0 [4, 22]: 85.5% | Adjusted CE0 [4, 23]: 69.1% | CE0 [4, 23]: 59.6% | RS0 [4, 23]: 73.1% | Adjusted CE0 [4, 24]: 58.5% | CE0 [4, 24]: 54.7% | RS0 [4, 24]: 61.9% | CE3 ([4]; short treatment, +S9 mix, Day 3, dose 62.5 μg/mL): 92.1% | CE3 ([4]; short treatment, +S9 mix, Day 3, dose 250 μg/mL): 104.6% | CE3 ([4]; short treatment, +S9 mix, Day 3, dose 500 μg/mL): 92.1% | CE3 ([4]; short treatment, +S9 mix, Day 3, dose 1000 μg/mL): 108.2% | CE3 ([4]; short treatment, +S9 mix, Day 3, dose 2000 μg/mL): 104.6% | CE3 ([4]; short treatment, +S9 mix, as fraction, dose 62.5 μg/mL): 0.921 | CE3 ([4]; short treatment, +S9 mix, as fraction, dose 250 μg/mL): 1.046 | CE3 ([4]; short treatment, +S9 mix, as fraction, dose 500 μg/mL): 0.921 | CE3 ([4]; short treatment, +S9 mix, as fraction, dose 1000 μg/mL): 1.082 | CE3 ([4]; short treatment, +S9 mix, as fraction, dose 2000 μg/mL): 1.046 | RSG [4, 11]: 1.016 | RSG [4, 12]: 1.004 | RSG [4, 13]: 1.149 | RSG [4, 14]: 0.770 | RSG [4, 15]: 0.963 | Adjusted CE0 [4, 25]: 82.4% | CE0 [4, 25]: 77.0% | RS0 [4, 25]: 94.7% | Adjusted CE0 [4, 26]: 97.6% | CE0 [4, 26]: 92.1% | RS0 [4, 26]: 112.2% | Adjusted CE0 [4, 27]: 99.4% | CE0 [4, 27]: 92.1% | RS0 [4, 27]: 114.3% | Adjusted CE0 [4, 28]: 93.9% | CE0 [4, 28]: 92.1% | RS0 [4, 28]: 107.9% | CE3 ([4]; short treatment, -S9 mix, Day 3, dose 62.50 μg/mL): 125.0% | CE3 ([4]; short treatment, -S9 mix, Day 3, dose 500.0 μg/mL): 95.0% | CE3 ([4]; short treatment, -S9 mix, Day 3, dose 1000.0 μg/mL): 108.2% | CE3 ([4]; short treatment, -S9 mix, Day 3, dose 2000.0 μg/mL): 89.3% | CE3 ([4]; short treatment, -S9 mix, as fraction, dose 62.50 μg/mL): 1.250 | CE3 ([4]; short treatment, -S9 mix, as fraction, dose 500.0 μg/mL): 0.950 | CE3 ([4]; short treatment, -S9 mix, as fraction, dose 1000.0 μg/mL): 1.082 | CE3 ([4]; short treatment, -S9 mix, as fraction, dose 2000.0 μg/mL): 0.893 | RSG [4, 16]: 0.906 | RSG [4, 17]: 1.168 | RSG [4, 18]: 0.743 | RSG [4, 19]: 0.681

IC(I)I [Iodoform]
MF at high-dose levels [5]: dose-dependent increase in MF | TK6 assay overall judgment [5]: negative | TK6 assay result (mutant frequency increase, judgment) [5]: Negative | TK mutation assay, Long term [5]: Neg | TK mutation assay, With S9 [5]: Neg | TK mutation assay, Without S9 [5]: Neg | Carcinogenicity Studies ([1]; rodent, ref [20]-[41], Table 2): Neg | Bacterial reverse mutation assay, With S9 ([6]; with S9): Pos | Bacterial reverse mutation assay, Without S9 ([6]; without S9): Pos | MF ([3]; 6.25 μg/mL, -S9 mix, graph sheet Short-S9): 2.7 | %SG ([3]; 6.25 μg/mL, short treatment, -S9 mix): 88.0% | MF ([3]; 50.0 μg/mL, -S9 mix, graph sheet Short-S9): 3.0 | %SG ([3]; 50.0 μg/mL, short treatment, -S9 mix): 48.2% | MF ([3]; 100.0 μg/mL, -S9 mix, graph sheet Short-S9): 4.5 | %SG ([3]; 100.0 μg/mL, short treatment, -S9 mix): 69.7% | MF ([3]; 200.0 μg/mL, -S9 mix, graph sheet Short-S9): 3.2 | %SG ([3]; 200.0 μg/mL, short treatment, -S9 mix): 80.4% | %SG ([3]; 24 h treatment -S9 mix, dose 10.00 μg/mL): 71.6% | %SG ([3]; 24 h treatment -S9 mix, dose 20.00 μg/mL): 71.8% | %SG ([3]; 24 h treatment -S9 mix, dose 30.00 μg/mL): 87.1% | %SG ([3]; 24 h treatment -S9 mix, dose 40.0 μg/mL): 100.0% | %SG ([3]; 24 h treatment -S9 mix, dose 50.0 μg/mL): 100.0% | %SG ([3]; 24 h treatment -S9 mix, dose 60.0 μg/mL): 79.6% | %SG ([3]; 24 h treatment -S9 mix, dose 70.0 μg/mL): 85.6% | %SG ([3]; Short treatment +S9 mix, dose 25 μg/mL): 65.1% | %SG ([3]; Short treatment +S9 mix, dose 50 μg/mL): 57.3% | %SG ([3]; Short treatment +S9 mix, dose 100 μg/mL): 65.1% | %SG ([3]; Short treatment +S9 mix, dose 200 μg/mL): 61.0%
